Source: patent publication US20110021362A1, “AGENTS FOR STIMULATING ACTIVITY OF METHYL MODIFYING ENZYMES AND METHODS OF USE THEREOF” (CONSTELLATION PHARMACEUTICALS, priority 2009, published 2011)

How the values were obtained:
rPRC2 = rPRC2 (Homo sapiens, UniProt O75530+Q15910); experiment: rPRC2 methylase stimulation assay (3H-SAM, FLASHplate/TopCount); assay type: biochemical; details: FIG. 5, histone peptides ~1.86 μM, oligonucleosomes 14.95 nM, 45 min at 30° C.
From the text: Polycomb repressive complex 2 (PRC2) is a multisubunit methylase complex that includes EZH2 (Enhancer of Zeste Homolog 2), EED, SUZ12, Rbap46, and Rbap48 subunits. Reconstituted PRC2 complexes (MW=600 kDa) were used in vitro assays to determine methylase activity in the presence of novel stimulating agents.
[…] For detection, Streptavidin FlashPlate HTS PLUS were used (High Capacity, 384 well, Perkin Elmer product # SMP410001PK).
A workflow used for high throughput assays was as follows: • 1. Preparation of assay plates using the ECHO® (Labcyte) (240 nl of DMSO or compound per well) • 2. Preparation of Mix I+II; I: 1202×15 μl; II: 1202×15.0 μl (dead volume ˜50 reactions) • Mix I • 6.0 μl 5× HMT buffer • 0.45 μl DTT 0.2M • 1.0 μl rPRC2 • 1.0 μl H3K27me3 peptide • 0.11 μl Bio/Avi-oligonuc. 1:10 • 6.44 μl water • 15.0 μl • Mix II • 1.0 μl ^3H-SAM • 14.0 μl water • 15.0 μl • 3. Adding Mix I to assay plate using the Multidrop (15 μl per well) • 4. Adding Mix II to assay plate using the Multidrop (15 μl per well) • 5. Mix content of wells in the assay plate • 6. Spin plate for 1 min at 400 RPM • 7. Incubate assay plate for 60 min at 30° C. • 8. Quench reaction by adding 30 μl of SAH [1.25 mM] to each well (mix); final conc.=568 μM • 9. […]
Stimulation of rPRC2 methylase activity was determined in the presence of unmodified H3, H3K4me3, H3K9me3, H3K27me3, H3K36me3, H3K79me3, H4K20me3, and H1.4K26me3. […]

[1] = target: recombinant Polycomb Repressive Complex 2 (rPRC2) complex, including EZH2, EED, SUZ12, RBAP46, and RBAP48 subunits (human) (UniProt Q15910); experiment: cell-based or functional assay

Sequence of rPRC2 (Q15910 1-751 isoform Q15910-2): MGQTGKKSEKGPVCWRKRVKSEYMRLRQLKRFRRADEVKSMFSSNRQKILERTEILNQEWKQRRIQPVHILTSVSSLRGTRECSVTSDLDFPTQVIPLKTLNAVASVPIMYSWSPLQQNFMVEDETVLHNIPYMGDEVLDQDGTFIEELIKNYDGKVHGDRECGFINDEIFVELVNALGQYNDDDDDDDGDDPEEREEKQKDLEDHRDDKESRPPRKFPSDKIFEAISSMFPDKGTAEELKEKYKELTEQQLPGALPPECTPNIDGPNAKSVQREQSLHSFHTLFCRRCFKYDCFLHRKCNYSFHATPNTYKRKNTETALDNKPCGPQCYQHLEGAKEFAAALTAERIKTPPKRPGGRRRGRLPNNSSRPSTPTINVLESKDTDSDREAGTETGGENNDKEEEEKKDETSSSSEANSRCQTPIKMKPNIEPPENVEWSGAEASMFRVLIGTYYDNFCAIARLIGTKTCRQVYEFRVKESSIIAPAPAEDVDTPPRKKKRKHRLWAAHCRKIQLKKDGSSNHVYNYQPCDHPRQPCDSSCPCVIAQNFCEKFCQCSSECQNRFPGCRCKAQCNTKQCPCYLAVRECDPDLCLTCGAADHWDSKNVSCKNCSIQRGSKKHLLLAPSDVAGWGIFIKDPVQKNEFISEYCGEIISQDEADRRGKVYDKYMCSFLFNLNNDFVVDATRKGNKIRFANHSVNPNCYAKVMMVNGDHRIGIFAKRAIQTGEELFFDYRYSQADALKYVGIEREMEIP
Sequence of rPRC2 (O75530 whole entry): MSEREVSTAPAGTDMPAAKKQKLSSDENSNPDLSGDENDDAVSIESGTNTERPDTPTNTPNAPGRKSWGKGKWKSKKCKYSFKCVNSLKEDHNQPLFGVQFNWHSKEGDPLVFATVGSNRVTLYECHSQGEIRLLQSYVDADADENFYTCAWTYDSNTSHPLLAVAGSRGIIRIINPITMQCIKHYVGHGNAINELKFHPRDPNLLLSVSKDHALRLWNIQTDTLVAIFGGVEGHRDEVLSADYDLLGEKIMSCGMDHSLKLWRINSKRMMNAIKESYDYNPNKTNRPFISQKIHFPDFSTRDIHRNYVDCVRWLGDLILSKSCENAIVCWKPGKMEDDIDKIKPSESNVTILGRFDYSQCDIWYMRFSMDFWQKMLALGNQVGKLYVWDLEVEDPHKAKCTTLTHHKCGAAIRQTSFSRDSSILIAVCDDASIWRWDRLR
Sequence of rPRC2 (Q15022 whole entry partner): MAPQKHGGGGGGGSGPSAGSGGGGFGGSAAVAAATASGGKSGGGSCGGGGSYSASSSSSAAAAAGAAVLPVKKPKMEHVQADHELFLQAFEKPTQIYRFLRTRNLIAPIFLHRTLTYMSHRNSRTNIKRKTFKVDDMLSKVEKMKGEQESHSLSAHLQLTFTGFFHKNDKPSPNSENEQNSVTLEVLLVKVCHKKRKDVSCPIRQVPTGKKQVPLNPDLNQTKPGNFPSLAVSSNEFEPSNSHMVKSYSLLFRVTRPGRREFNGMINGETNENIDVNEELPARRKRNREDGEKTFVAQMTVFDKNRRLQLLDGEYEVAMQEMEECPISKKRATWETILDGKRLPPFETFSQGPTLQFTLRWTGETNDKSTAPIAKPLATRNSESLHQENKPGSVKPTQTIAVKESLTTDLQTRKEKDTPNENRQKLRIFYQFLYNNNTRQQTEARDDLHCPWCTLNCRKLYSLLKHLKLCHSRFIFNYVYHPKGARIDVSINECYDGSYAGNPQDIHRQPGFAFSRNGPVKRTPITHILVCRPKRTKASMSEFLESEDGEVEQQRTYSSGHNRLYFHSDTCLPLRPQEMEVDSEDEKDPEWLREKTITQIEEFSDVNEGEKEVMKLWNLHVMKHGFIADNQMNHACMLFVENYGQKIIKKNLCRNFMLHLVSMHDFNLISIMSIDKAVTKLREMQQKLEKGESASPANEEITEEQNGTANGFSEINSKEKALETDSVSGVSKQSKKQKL
Sequence of rPRC2 (Q16576 whole entry partner): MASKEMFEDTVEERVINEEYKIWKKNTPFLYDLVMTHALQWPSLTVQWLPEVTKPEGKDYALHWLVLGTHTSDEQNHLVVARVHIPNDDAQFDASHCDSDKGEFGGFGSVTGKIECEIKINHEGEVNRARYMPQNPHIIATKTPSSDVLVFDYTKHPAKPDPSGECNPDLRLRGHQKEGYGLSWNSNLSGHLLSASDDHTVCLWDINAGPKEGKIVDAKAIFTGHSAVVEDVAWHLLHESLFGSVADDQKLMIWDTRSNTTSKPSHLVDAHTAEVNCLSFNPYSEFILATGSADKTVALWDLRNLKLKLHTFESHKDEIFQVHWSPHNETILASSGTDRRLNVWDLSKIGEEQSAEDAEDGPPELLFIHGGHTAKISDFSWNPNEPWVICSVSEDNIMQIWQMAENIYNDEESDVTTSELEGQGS
Sequence of rPRC2 (Q09028 whole entry partner): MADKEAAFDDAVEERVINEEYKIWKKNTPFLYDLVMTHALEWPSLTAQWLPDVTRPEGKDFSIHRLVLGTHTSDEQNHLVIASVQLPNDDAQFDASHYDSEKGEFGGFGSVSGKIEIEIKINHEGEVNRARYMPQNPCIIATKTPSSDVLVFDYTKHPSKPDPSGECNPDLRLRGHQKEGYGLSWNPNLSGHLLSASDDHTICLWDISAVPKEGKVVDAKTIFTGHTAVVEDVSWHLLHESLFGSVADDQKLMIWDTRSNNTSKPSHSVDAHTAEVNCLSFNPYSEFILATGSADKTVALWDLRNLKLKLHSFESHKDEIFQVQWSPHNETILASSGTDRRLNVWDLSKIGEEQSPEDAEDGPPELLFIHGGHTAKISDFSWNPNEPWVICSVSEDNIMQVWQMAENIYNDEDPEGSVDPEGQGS

| Substance | stimulation of rPRC2 methylase activity toward Bio/Avi-H3 [1] [fold] | further results |
| --- | --- | --- |
| ARTKQTAR[Kme3]STGGKAPRKQLA(-Biotin) [H3K9me3] | – | stimulation of rPRC2 methylase activity toward oligonucleosomes (relative to unmodified H3) (rPRC2; enzyme 12.15 nM): over 9 fold |
| Dimethylated H3K27 peptide | 6 | – |
| Monomethylated H3K27 peptide | 4 | – |
| VKKKAR[Kme2]SAGAAKRKASG(-Biotin) [H1.4K26me3] | – | stimulation of rPRC2 methylase activity toward oligonucleosomes (in words) (rPRC2): Stimulation |
